Measurements reported in ChEMBL document CHEMBL1148063, “(+/-)-Gelliusines A and B, two diastereomeric brominated tris-indole alkaloids from a deep water new caledonian marine sponge (Gellius or Orina sp.)” (J Nat Prod, 1994).
Converted amounts (≈) assume the structure as drawn. The source made the active and inactive calls. The rule behind the calls is not given here.

What was measured:
Ileum [1] = experiment: Inhibition of acetylcholine-induced contraction in guinea pig ileum at 0.2 ug/ml; format: functional, tissue-based; details: Cavia porcellus
Ileum [2] = experiment: Inhibition of acetylcholine-induced contraction in guinea pig ileum at 0.5 ug/ml; format: functional, tissue-based; details: Cavia porcellus
KB = experiment: Cytotoxicity against human KB cells; format: functional, cell-based
P388 [3] = experiment: Cytotoxicity against mouse P388 cells; format: functional, cell-based
P388 [4] = experiment: Cytotoxicity against mouse doxorubicin-resistant P388 cells; format: functional, cell-based
HT-29 = experiment: Cytotoxicity against human HT-29 cells; format: functional, cell-based
[5] = Cytotoxicity against human NSCLC-N6 cells; format: functional, cell-based
Ileum [6] = experiment: Inhibition of serotonin-induced contraction in guinea pig ileum at 4 ug/ml; format: functional, tissue-based; details: Cavia porcellus
Cavia porcellus = species: Cavia porcellus; experiment: Antagonist activity at serotonin receptor in guinea pig ileum; format: functional, tissue-based

CC(C)NCC(O)COc1cccc2ccccc12 (centres undefined)
Activity (Ileum [1]): inactive

CC(COc1ccccc1)N(CCCl)Cc1ccccc1 (centres undefined)
Activity (Ileum [2]): inactive

NCCc1c(C(CN)c2c[nH]c3cc(Br)ccc23)[nH]c2cc(C(CN)c3c[nH]c4cc(Br)ccc34)c(O)cc12 (racemic) [GELLIUSINE A]
IC50 (KB): 10 µg/mL (≈ 15.4 µM) | IC50 (P388 [3]): 10 µg/mL (≈ 15.4 µM) | IC50 (P388 [4]): 10 µg/mL (≈ 15.4 µM) | IC50 (HT-29): 10 µg/mL (≈ 15.4 µM) | IC50 [5]: 10 µg/mL (≈ 15.4 µM) | Activity (Ileum [6]): Active | Activity (Cavia porcellus): Active
